Measured values reported in publication PMC4224687 (Journal of Controlled Release, 2014).

Format: in vivo, male Sprague-Dawley rats
Settings: rats, saline solution, 50 mg/kg

## CO[C@H]1O[C@H](COS(=O)(=O)O)[C@@H](O[C@@H]2O[C@@H](C(=O)O)[C@@H](O[C@H]3O[C@H](COS(=O)(=O)O)[C@@H](O[C@@H]4O[C@H](C(=O)O)[C@@H](O[C@H]5O[C@H](COS(=O)(=O)O)[C@@H](O)[C@H](O)[C@H]5NS(=O)(=O)O)[C@H](O)[C@H]4O)[C@H](OS(=O)(=O)O)[C@H]3NS(=O)(=O)O)[C@H](O)[C@H]2OS(=O)(=O)O)[C@H](O)[C@H]1NS(=O)(=O)O [Fpx, Fondaparinux]
  oral absorption: not absorbed
